The values that follow are results of earlier work, collected in patent US20120295320A1, “APPARATUS AND METHOD FOR TREATMENT OF MICROORGANISMS DURING PROPAGATION, CONDITIONING AND FERMENTATION USING STABILIZED CHLORINE DIOXIDE/SODIUM CHLORITE WITH HOPS ACID EXTRACTS” (RESONANT BIOSCIENCES, LLC, priority 2010, published 2012).

This data set concerns Weisella confusa. Particulars: background statement, fermentation mixture.

In the case of Virginiamycin, the “concentration required to inhibit growth of Weisella confusa” value is on record as “over 25 mg/L”.
